The source of these data is US20150344540A1, “NOVEL GLP-1 RECEPTOR AGONISTS WITH CHOLESTEROL EFFLUX ACTIVITY” (NOVO NORDISK A/S, priority 2012, published 2015).

Molecules are shown by their SMILES. Read-outs that look alike come from different tables or passages of the source. Where a SMILES comes first, the peptide text is derived from it. [ ]: non-standard residue; d: D form. Aib = CC(C)(N)C(=O)O

The target in data set [1] is human GLP-1 receptor (Homo sapiens, UniProt P43220). Description: Functional GLP-1 receptor assay, in vitro potency (CRE luciferase; whole cells). Format: cell-based. The note with it: BHK cells expressing human GLP-1 receptor.
Data set [2] is described as follows: Pharmacokinetics in mini-pigs after i.v. administration. The note with it: female, Göttingen, minipig, plasma, iv, 5 nmol/kg. An excerpt:
The aim of the study is to assess the pharmacokinetic properties of the compounds of the invention, in mini-pigs.
Göttingen mini-pigs female, 15-20 kg, purchased from Ellegaard Mini-pigs, Denmark, were housed in the Animal Unit, Novo Nordisk A/S and were kept and handled according to normal procedure in the Animal Unit. After minimum 2 weeks of acclimatization two permanent central venous catheters were implemented in vena cava caudalis in each animal. After surgery the animals were in their normal individual pens during the pharmacokinetic experiments.
Intravenous injections were given through the central short catheter, which was flushed with min 10 ml of sterile saline post administration. The test substance was dosed at 5 nmol/kg, N=3, in a volume of 0.05 ml/kg.
On day 1 the catheters are coupled to extension tubes, which will be removed at the end of day 1.
Samples were kept on wet ice until centrifugation (10 min, 4° C., 1942 g). Afterwards, plasma (min. 100 μl) was transferred immediately to Micronic tubes and kept at −20° C. until analysis. The plasma samples were analysed by an immunoaasay described below.
The plasma concentrations of the peptides with intact N-terminus were determined using a Luminescence Oxygen Chanelling Immuno-assay (LOCI). The donor beads were coated with streptavidin, while acceptor beads were conjugated with a monoclonal antibody recognizing a mid-/C-terminal epitope of the peptide. The other monoclonal antibody, specific for the N-terminus, was biotinylated. The three reactants were combined with the analyte and formed a two-sited immuno-complex. Illumination of the complex released singlet oxygen atoms from the donor beads, which were channeled into the acceptor beads and triggered chemi-luminescence which was measured in an Envision plate reader. The amount of light was proportional to the concentration of the compound.
Plasma concentration-time profiles was analysed by a non-compartmental pharmacokinetics analysis using Phoenix (Pharsight Inc., Mountain View, Calif., USA). Calculations were performed using individual concentration-time values from each animal.

Data set [3] deals with Mouse monocyte/macrophage cell line, RAW 264.7. Briefly: Cholesterol efflux assay (3H-cholesterol, macrophage cell line). Format: cell-based. Conditions: RAW 264.7, 4 hrs incubation, 0.1% human serum albumin, ABCA1-mediated efflux.
Setting [4] is: 0% HSA, read-out: GLP1R CRE luc 0% HSA EC50 Mean Value.
Setting [5] is: GLP1R CRE luc 1% HSA EC50 Mean Value, 1% HSA.
Where [6] appears, read: T1/2 Mean Value, Göttingen mini-pigs, N=3.

human GLP-1 receptor, sequence (P43220 24-463): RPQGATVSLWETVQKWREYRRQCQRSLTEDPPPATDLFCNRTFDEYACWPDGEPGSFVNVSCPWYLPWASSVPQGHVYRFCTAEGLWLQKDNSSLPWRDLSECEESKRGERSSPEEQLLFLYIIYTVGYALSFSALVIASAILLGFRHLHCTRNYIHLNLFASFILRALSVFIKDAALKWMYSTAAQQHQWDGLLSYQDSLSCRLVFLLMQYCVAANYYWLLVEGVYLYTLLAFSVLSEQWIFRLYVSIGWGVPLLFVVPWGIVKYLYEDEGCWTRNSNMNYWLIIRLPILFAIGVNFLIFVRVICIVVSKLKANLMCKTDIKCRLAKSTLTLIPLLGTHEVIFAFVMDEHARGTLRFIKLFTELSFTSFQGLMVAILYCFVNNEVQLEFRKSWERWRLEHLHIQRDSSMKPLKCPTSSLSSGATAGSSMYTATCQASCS

Take `CC[C@H](C)[C@H](NC(=O)[C@H](Cc1ccccc1)NC(=O)[C@H](CCC(=O)O)NC(=O)[C@H](CCCCN)NC(=O)[C@@H](NC(=O)[C@H](C)NC(=O)[C@H](CCC(=O)O)NC(=O)CNC(=O)[C@H](CCC(=O)O)NC(=O)[C@H](CC(C)C)NC(=O)[C@H](Cc1ccc(O)cc1)NC(=O)[C@H](CO)NC(=O)[C@H](CO)NC(=O)[C@@H](NC(=O)[C@H](CC(=O)O)NC(=O)[C@H](CO)NC(=O)[C@@H](NC(=O)[C@H](Cc1ccccc1)NC(=O)[C@@H](NC(=O)CNC(=O)[C@H](CCC(=O)O)NC(=O)C(C)(C)NC(=O)[C@@H](N)Cc1c[nH]cn1)[C@@H](C)O)[C@@H](C)O)C(C)C)C(C)C)C(=O)N[C@@H](CCC(N)=O)C(=O)N[C@@H](Cc1c[nH]cn1)C(=O)N[C@@H](CC(C)C)C(=O)N[C@H](C(=O)N[C@@H](CCC(=O)O)C(=O)N[C@@H](CCCCN)C(=O)N[C@@H](CC(C)C)C(=O)N[C@@H](CCCCN)C(=O)N[C@@H](CCC(=O)O)C(=O)N[C@@H](Cc1ccccc1)C(=O)N[C@@H](CC(C)C)C(N)=O)C(C)C` [Compound 87, [Aib8,Glu23,Val25,Gln30,His31,Glu34,Lys35,Leu36,Lys37]-GLP-1-(7-37)-peptidyl-Glu-Phe-Leu amide] (H-H[Aib]EGTFTSDVSSYLEGEAVKEFIQHLVEKLKEFL-NH2): the EC50 in data set [1] (setting [4]) stood at 0.077 nM. In data set [1] (setting [5]), this compound returned a 50% effective concentration (EC50) of 0.025 nM. In data set [2], this compound gave a C0 of 155 nM, a Vd of 0.0958 L/kg and a clearance of 3.47 mL/h/kg. The compound further had a half-life in data set [2] (setting [6]) of 19 h. Besides, the “4 h Cholesterol Efflux Emax” value in data set [3] amounted to 121%.

For the compound `CC[C@H](C)[C@H](NC(=O)[C@H](Cc1ccccc1)NC(=O)[C@H](CCC(=O)O)NC(=O)[C@H](CCCCN)NC(=O)[C@H](C)NC(=O)[C@H](C)NC(=O)[C@H](CCC(N)=O)NC(=O)CNC(=O)[C@H](CCC(=O)O)NC(=O)[C@H](CC(C)C)NC(=O)[C@H](Cc1ccc(O)cc1)NC(=O)[C@H](CO)NC(=O)[C@H](CO)NC(=O)[C@@H](NC(=O)[C@H](CC(=O)O)NC(=O)[C@H](CO)NC(=O)[C@@H](NC(=O)[C@H](Cc1ccccc1)NC(=O)[C@@H](NC(=O)CNC(=O)[C@H](CCC(=O)O)NC(=O)C(C)(C)NC(=O)[C@@H](N)Cc1c[nH]cn1)[C@@H](C)O)[C@@H](C)O)C(C)C)C(=O)N[C@@H](C)C(=O)N[C@@H](Cc1c[nH]c2ccccc12)C(=O)N[C@@H](CC(C)C)C(=O)N[C@H](C(=O)N[C@@H](CCCCN)C(=O)N[C@@H](CCCCN)C(=O)NC(C)(C)C(=O)NCC(=O)N[C@@H](CCC(=O)O)C(=O)N[C@@H](Cc1ccccc1)C(=O)N[C@@H](CC(C)C)C(N)=O)C(C)C` [Compound 48], the EC50 in data set [1] (setting [4]) came out at 0.045 nM. Further, the EC50 in data set [1] (setting [5]) amounted to 0.015 nM. Further, in data set [2], the C0 stood at 85.5 nM, the Vd worked out at 0.0743 L/kg and the clearance is 6.3 mL/h/kg. In addition, the half-life in data set [2] (setting [6]) is 8.3 h. In addition, the “4 h Cholesterol Efflux Emax” value in data set [3] is reported as 71%.

In data set [2], `CC[C@H](C)[C@H](NC(=O)[C@H](Cc1ccccc1)NC(=O)[C@H](CCC(=O)O)NC(=O)[C@H](CCCCN)NC(=O)[C@@H](NC(=O)[C@H](C)NC(=O)[C@H](CCC(=O)O)NC(=O)CNC(=O)[C@H](CCC(=O)O)NC(=O)[C@H](CC(C)C)NC(=O)[C@H](Cc1ccc(O)cc1)NC(=O)[C@H](CO)NC(=O)[C@H](CO)NC(=O)[C@@H](NC(=O)[C@H](CC(=O)O)NC(=O)[C@H](CO)NC(=O)[C@@H](NC(=O)[C@H](Cc1ccccc1)NC(=O)[C@@H](NC(=O)CNC(=O)[C@H](CCC(=O)O)NC(=O)C(C)(C)NC(=O)[C@@H](N)Cc1c[nH]cn1)[C@@H](C)O)[C@@H](C)O)C(C)C)C(C)C)C(=O)N[C@@H](C)C(=O)N[C@@H](Cc1c[nH]c2ccccc12)C(=O)N[C@@H](CC(C)C)C(=O)N[C@H](C(=O)N[C@@H](CCC(=O)O)C(=O)N[C@@H](CCCCN)C(=O)NC(C)(C)C(=O)N[C@@H](CCCCN)C(=O)N[C@@H](CCC(=O)O)C(=O)N[C@@H](Cc1c[nH]cn1)C(=O)N[C@@H](CC(C)C)C(N)=O)C(C)C` [Compound 4, [Aib8,Glu23,Val25,Glu34,Lys35,Aib36,Lys37]-GLP-1-(7-37)-peptidyl-Glu-His-Leu amide] (H-H[Aib]EGTFTSDVSSYLEGEAVKEFIAWLVEK[Aib]KEHL-NH2) had a C0 of 72.1 nM, a Vd of 0.1 L/kg and a clearance of 3.31 mL/h/kg. The same compound had a half-life in data set [2] (T1/2, mini-pigs) of 20.6 h. In data set [2] (setting [6]), this compound showed a half-life of 20.6 h. The “4 h Cholesterol Efflux Emax” value in data set [3] is recorded as 100%.

Regarding `CC[C@H](C)[C@H](NC(=O)[C@H](Cc1ccccc1)NC(=O)[C@H](CCC(=O)O)NC(=O)[C@H](CCCCN)NC(=O)[C@@H](NC(=O)[C@H](C)NC(=O)[C@H](CCC(=O)O)NC(=O)CNC(=O)[C@H](CCC(=O)O)NC(=O)[C@H](CC(C)C)NC(=O)[C@H](Cc1ccc(O)cc1)NC(=O)[C@H](CO)NC(=O)[C@H](CO)NC(=O)[C@@H](NC(=O)[C@H](CC(=O)O)NC(=O)[C@H](CO)NC(=O)[C@@H](NC(=O)[C@H](Cc1ccccc1)NC(=O)[C@@H](NC(=O)CNC(=O)[C@H](CCC(=O)O)NC(=O)C(C)(C)NC(=O)[C@@H](N)Cc1c[nH]cn1)[C@@H](C)O)[C@@H](C)O)C(C)C)C(C)C)C(=O)N[C@@H](C)C(=O)N[C@@H](Cc1c[nH]c2ccccc12)C(=O)N[C@@H](CC(C)C)C(=O)N[C@H](C(=O)N[C@@H](CCC(=O)O)C(=O)N[C@@H](CCCCN)C(=O)NC(C)(C)C(=O)N[C@@H](CCCCN)C(=O)N[C@@H](CCC(=O)O)C(=O)N[C@@H](Cc1ccccc1)C(=O)N[C@@H](CC(C)C)C(=O)N[C@@H](CCC(=O)O)C(=O)N[C@@H](CCCCN)C(=O)N[C@H](C(N)=O)C(C)C)C(C)C` [Compound 54, [Aib8,Glu23,Val25,Glu34,Lys35,Aib36,Lys37]-GLP-1-(7-37)-peptidyl-Glu-Phe-Leu-Glu-Lys-Val amide], in data set [2], the C0 was found to be 136 nM, the Vd stood at 0.0802 L/kg and the clearance was 1.31 mL/h/kg. In data set [2] (setting [6]), this compound showed a half-life of 40.7 h. Moreover, in data set [3], the “4 h Cholesterol Efflux Emax” value was determined as 121%.

In data set [2], `CC[C@H](C)[C@H](NC(=O)[C@H](Cc1ccccc1)NC(=O)[C@H](CCC(=O)O)NC(=O)[C@H](CCCCN)NC(=O)[C@@H](NC(=O)[C@H](CCCCN)NC(=O)[C@H](CCC(=O)O)NC(=O)CNC(=O)[C@H](CCC(=O)O)NC(=O)[C@H](CC(C)C)NC(=O)[C@H](Cc1ccc(O)cc1)NC(=O)[C@H](CO)NC(=O)[C@H](CO)NC(=O)[C@@H](NC(=O)[C@H](CC(=O)O)NC(=O)[C@H](CO)NC(=O)[C@@H](NC(=O)[C@H](Cc1ccccc1)NC(=O)[C@@H](NC(=O)CNC(=O)[C@H](CCC(=O)O)NC(=O)C(C)(C)NC(=O)[C@@H](N)Cc1c[nH]cn1)[C@@H](C)O)[C@@H](C)O)C(C)C)C(C)C)C(=O)N[C@@H](CCC(=O)O)C(=O)N[C@@H](Cc1c[nH]c2ccccc12)C(=O)N[C@@H](CC(C)C)C(=O)N[C@H](C(=O)N[C@@H](CCC(=O)O)C(=O)N[C@@H](CCCCN)C(=O)NC(C)(C)C(=O)N[C@@H](CCCCN)C(=O)N[C@@H](CCC(=O)O)C(=O)N[C@@H](Cc1ccccc1)C(=O)N[C@@H](CC(C)C)C(N)=O)C(C)C` [Compound 49, [Aib8,Glu23,Lys24,Val25,Glu30,Glu34,Lys35,Aib36,Lys37]-GLP-1-(7-37)-peptidyl-Glu-Phe-Leu amide] (H-H[Aib]EGTFTSDVSSYLEGEKVKEFIEWLVEK[Aib]KEFL-NH2) had a C0 of 131 nM, a Vd of 0.0878 L/kg and a clearance of 2.68 mL/h/kg. This compound gave a half-life in data set [2] (setting [6]) of 24 h. In addition, in data set [3], the “4 h Cholesterol Efflux Emax” value is reported as 123%.
